This is an account of results in ChEMBL document CHEMBL5608184, “Discovery and mechanistic insights into thieno[3,2-d]pyrimidine and heterocyclic fused pyrimidines inhibitors targeting tubulin for cancer therapy” (Eur J Med Chem, 2024).

Assay [1] has as its system SK-OV-3. Description: Antiproliferative activity against human SK-OV-3 cells incubated for 48 hrs by CCK8 assay. The class given is functional, cell-based. To be noted: SK-OV-3, 48 h.
The next assay deals with Tubulin. Description: Binding affinity to CM5-chip immobilized tubulin (unknown origin) assessed as dissociation constant by SPR analysis. The class given is protein-complex assay, Homo sapiens.
Another assay deals with A549. The assay can be described thus: cells. To be noted: Homo sapiens, A549, 48 h.
The subject of a further assay is HCC827. The assay can be described thus: Antiproliferative activity against human HCC827 cells incubated for 48 hrs by CCK8 assay. In kind it is functional, cell-based. To be noted: HCC827, 48 h.
The subject of the next assay is A2780. The assay can be described thus: Antiproliferative activity against human A2780 cells incubated for 48 hrs by CCK8 assay. The class given is functional, cell-based. To be noted: A2780, 48 h.
Assay [2] concerns SK-OV-3. Description: Induction of apoptosis in human SK-OV-3 cells assessed as late apoptotic cells at 5 nM incubated for 48 hrs by Annexin V-APC-A/7-AAD-A staining based flow cytometry (reference value: 1.22 %). The class given is functional.
In assay [3] the test system is SK-OV-3. Description: Induction of apoptosis in human SK-OV-3 cells assessed as necrotic cells at 5 nM incubated for 48 hrs by Annexin V-APC-A/7-AAD-A staining based flow cytometry (reference value: 0.48 %). In kind it is functional.
In assay [4] the test system is SK-OV-3. The assay can be described thus: Induction of apoptosis in human SK-OV-3 cells assessed as viable cells at 5 nM incubated for 48 hrs by Annexin V-APC-A/7-AAD-A staining based flow cytometry (reference value: 97.17 %). The class given is functional. To be noted: read-out: Activity.
Assay [5] is described as follows: Antiproliferative activity against Paclitaxel-resistant human A2780 cells incubated for 48 hrs by CCK8 assay. Conditions: Paclitaxel-resistant A2780, 48 h. In kind it is functional, cell-based.
Assay [6] concerns SK-OV-3. The assay can be described thus: Induction of apoptosis in human SK-OV-3 cells assessed as necrotic cells at 5 nM incubated for 48 hrs by Annexin V-APC-A/7-AAD-A staining based flow cytometry (reference value: 0.21 %). The class given is functional.
Assay [7] concerns SK-OV-3. The assay can be described thus: Induction of cell cycle arrest at G2/M phase in human SK-OV-3 cells at 5 nM incubated for 24 hrs by PI staining based flow cytometry (reference value: 29.73 %). In kind it is functional.
Assay [8] deals with SK-OV-3. Description: Induction of apoptosis in human SK-OV-3 cells assessed as viable cells at 5 nM incubated for 48 hrs by Annexin V-APC-A/7-AAD-A staining based flow cytometry (reference value: 97.50 %). In kind it is functional. Conditions: read-out: Activity.
Assay [9] concerns SK-OV-3. Description: Induction of apoptosis in human SK-OV-3 cells assessed as late apoptotic cells at 5 nM incubated for 48 hrs by Annexin V-APC-A/7-AAD-A staining based flow cytometry (reference value: 1.20 %). In kind it is functional.
Assay [10] relates to SK-OV-3. The assay can be described thus: Induction of apoptosis in human SK-OV-3 cells assessed as early apoptotic cells at 5 nM incubated for 48 hrs by Annexin V-APC-A/7-AAD-A staining based flow cytometry (reference value: 1.12 %). The class given is functional.
Assay [11] concerns SK-OV-3. The assay can be described thus: Induction of cell cycle arrest at G2/M phase in human SK-OV-3 cells at 5 nM incubated for 24 hrs by PI staining based flow cytometry (reference value: 30.13 %). The class given is functional.
The subject of assay [12] is SK-OV-3. The assay can be described thus: Induction of apoptosis in human SK-OV-3 cells assessed as early apoptotic cells at 5 nM incubated for 48 hrs by Annexin V-APC-A/7-AAD-A staining based flow cytometry (reference value: 1.10 %). The class given is functional.
The species named for another assay is Sus scrofa. Description: Inhibition of porcine brain tubulin polymerization at 10 uM measured for 60 min by fluorescence based assay.
The next assay addresses Tubulin (Homo sapiens) (UniProt P68371+Q9H4B7+P0DPH7+P68366+Q13509+Q71U36+P04350+Q3ZCM7+P07437+P68363+Q9BQE3+Q6PEY2+Q13885+Q9BVA1+Q9BUF5). The assay can be described thus: Inhibition of tubulin polymerization in human SK-OV-3 assessed as disruption of microtubule organization at 2 nM incubated for 24 hrs by immunofluorescence based analysis. The class given is cell-based.

The source made the active and inactive calls. No cut-off for these calls is given here.

Description for A549: Antiproliferative activity against human A549 cells incubated for 48 hrs by CCK8 assay

On to `COc1ccc(N(C)c2nc(Cl)nc3ccsc23)cc1`, for which the IC50 in the assay with SK-OV-3 [1] stood at 5.83 nM; in the assay with A549, 8.63 nM; in the assay on HCC827 it was 8.55 nM; in the assay with A2780, 7.26 nM. Besides, the Kd at Tubulin amounted to 29700 nM.
As to `COc1cc2c(c(OC)c1OC)-c1ccc(OC)c(=O)cc1[C@@H](NC(C)=O)CC2` [COLCHICINE], the Activity in the assay on SK-OV-3 [2] is reported as 2.01%; in the assay on SK-OV-3 [3], 0.28%; in the assay on SK-OV-3 [6], 0.38%; in the assay with SK-OV-3 [7], 34.38%; with SK-OV-3 [9], 1.53%; with SK-OV-3 [10], 1.47%. Besides, the Activity came out at 34.8% with SK-OV-3 [11] and 2.15% with SK-OV-3 [12]. The IC50 in the assay on SK-OV-3 [1] was 10.2 nM; in assay [5] it was 500 nM; with HCC827, 9.31 nM; with A2780, 12.4 nM. Besides, the viability at 0.005 µM in the assay with SK-OV-3 [4] came out at 96.2%; with SK-OV-3 [8] it was 95.9%.
As for `CC(=O)O[C@H]1C(=O)[C@@]2(C)[C@H]([C@H](OC(=O)c3ccccc3)[C@]3(O)C[C@H](OC(=O)[C@H](O)[C@@H](NC(=O)c4ccccc4)c4ccccc4)C(C)=C1C3(C)C)[C@]1(OC(C)=O)CO[C@@H]1C[C@@H]2O` [PACLITAXEL], the inhibition result in the assay filed under Sus scrofa and at Tubulin (Homo sapiens) was “inactive” each time. Moreover, the IC50 in the assay on SK-OV-3 [1] is 1.19 nM; in assay [5] it was 3820 nM; with A549, 3.12 nM; with HCC827, 1.25 nM; with A2780, 1.31 nM.
As for `CN(c1ccc(OC(F)(F)F)cc1)c1nc(Cl)nc2ccsc12`, the IC50 with SK-OV-3 [1] was found to be 101 nM; in the assay with A549, 601 nM; in the assay on HCC827 it was 346 nM; in the assay on A2780, 393 nM.
